Measured values taken from article PMC10435995 (Life Science Alliance, 2023).

Molecular target: T1, hDHFR (dihydrofolate reductase) (Homo sapiens, UniProt P00374)
T1 construct: gene DHFR; recombinant hDHFR (8456-DR-100; R&D Systems)
T1 sequence (P00374 1-187): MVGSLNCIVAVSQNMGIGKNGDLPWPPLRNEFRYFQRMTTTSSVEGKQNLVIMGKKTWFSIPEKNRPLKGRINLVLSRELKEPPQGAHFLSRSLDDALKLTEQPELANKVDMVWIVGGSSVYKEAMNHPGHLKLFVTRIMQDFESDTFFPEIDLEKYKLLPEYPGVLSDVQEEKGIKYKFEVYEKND
Experiment: ITC at […]°C without NADPH (also enzyme inhibition, CETSA, TPP)
Type: binding
Details: read-out: Average Kd (±s.d.)

Structure (SMILES): Cc1nc(N)nc(N)c1/C=C/C1(c2ccc(C(F)(F)F)cc2)CC1 [C1]
- Kd: 28.1 ± 18.4 nM
